In one series the test system is MCF7/VP cells. As to the kind of experiment: Drug cytotoxicity with or without 10 μM modulator, MCF7/VP (MRP1) cells (Table V). Conditions: read-out: IC50 (EtOH).
A further series relates to A498 cells. As to the kind of experiment: Drug cytotoxicity with or without 10 μM modulator, A498 cells (Table V).
A further series relates to T24 cells. Briefly: Drug cytotoxicity with or without 10 μM modulator, T24 cells (Table V).
Another series has as its system NCI/ADR cells. Briefly: Drug cytotoxicity with or without 10 μM modulator, NCI/ADR cells (Table V). Conditions: read-out: IC50 (EtOH).
The test system of series [1] is MCF-7 cells. Briefly: Drug cytotoxicity with or without 10 μM modulator, MCF-7 cells (Table V).
Another series concerns P388/ADR cells. Briefly: Drug cytotoxicity with or without 10 μM modulator, P388/ADR cells (Table V). The conditions noted are these: read-out: IC50 (EtOH).
Series [2] has as its system MCF-7 cells. Briefly: Cytotoxicity toward drug-sensitive MCF-7 cells (sulforhodamine B binding assay). The class given is cell-based, human. The conditions noted are these: for IC50: MCF-7 cells, 48 hours, concentration required to kill 50% of the cells, * = maximum dose tested (low solubility); for Toxicity: percent of MCF-7 cells killed by 10 μ/ml of the compound.
In the next series the target is T1, MRP (Homo sapiens, UniProt P33527).
T1 construct: MCF-7/VP cells, a cell line that expresses MRP; endogenous in cells; host or cells: MCF-7/VP cells
Briefly: Reversal of MRP-mediated MDR: enhancement of vincristine cytotoxicity toward MCF-7/VP cells. The class given is cell-based. The conditions noted are these: % survival with compound alone / with compound + 1 nM vincristine; for MRP1 antagonism score: >1.0 = chemosensitization. The protocol: Reversal of MRP-mediated MDR was examined by plating MCF-7/VP cells as described above and exposing the cells to varying concentrations of phenoxymethylquinoxalinone compounds in the absence or presence of 1 nM vincristine for 48 hours. Cell survival was assayed as described above. The percentage of cells that died following treatment was calculated as described above. Inhibition of MRP was manifested as the ability of the compound to enhance the cytotoxicity of vincristine toward MCF-7/VP cells.
Chemosensitization is indicated by a score greater than 1.0.
Chemosensitization is indicated by a score greater than 1.0. […]

The target of the next series is P-gp (Homo sapiens, UniProt P08183). Conditions: for P-gp antagonism score / Pgp Antagonism: NCI/ADR cells, % survival with compound alone / with compound + 50 nM vinblastine; for P-gp antagonism score: >1.0 = chemosensitization; for p-GP/MRP1: ratio of P-gp and MRP1 antagonism scores. Here is the method: The percentage of cells that died following treatment was calculated as a percent decrease in sulforhodamine B binding as compared with control cultures. […] Inhibition of P-gp was manifested as the ability of the compound to enhance the cytotoxicity of vinblastine toward NCI/ADR cells. To assess the toxicity of the compounds toward drug-sensitive cells, the effects of the compounds on the growth of drug-sensitive MCF-7 cells were determined using the same methods.
The P-gp antagonism score was calculated by dividing the percent survival of NCI/ADR cells treated with the compound alone by the percent survival of NCI/ADR cells treated with the compound in the presence of 50 nM vinblastine. Chemosensitization is indicated by a score of more than 1.0.
The P-gp antagonism score was calculated by dividing the percent survival of NCI/ADR cells treated with […] by the percent survival of NCI/ADR cells treated with the compound in the presence of 50 nM vinblastine.

Where [3] appears, read: Homo sapiens, A498, read-out: IC50 (EtOH).
Where [4] appears, read: Homo sapiens, T-24, read-out: IC50 (EtOH).
[5] abbreviates: Homo sapiens, MCF7, read-out: IC50 (EtOH).

From patent US6693112B2, “Compounds for enhancing chemotherapy” (The Pennsylvania State University, priority 2000, dated 2004) come the findings set out here.

Read-outs that look alike come from different tables or passages of the source.

Chain of P-gp (P08183 whole entry): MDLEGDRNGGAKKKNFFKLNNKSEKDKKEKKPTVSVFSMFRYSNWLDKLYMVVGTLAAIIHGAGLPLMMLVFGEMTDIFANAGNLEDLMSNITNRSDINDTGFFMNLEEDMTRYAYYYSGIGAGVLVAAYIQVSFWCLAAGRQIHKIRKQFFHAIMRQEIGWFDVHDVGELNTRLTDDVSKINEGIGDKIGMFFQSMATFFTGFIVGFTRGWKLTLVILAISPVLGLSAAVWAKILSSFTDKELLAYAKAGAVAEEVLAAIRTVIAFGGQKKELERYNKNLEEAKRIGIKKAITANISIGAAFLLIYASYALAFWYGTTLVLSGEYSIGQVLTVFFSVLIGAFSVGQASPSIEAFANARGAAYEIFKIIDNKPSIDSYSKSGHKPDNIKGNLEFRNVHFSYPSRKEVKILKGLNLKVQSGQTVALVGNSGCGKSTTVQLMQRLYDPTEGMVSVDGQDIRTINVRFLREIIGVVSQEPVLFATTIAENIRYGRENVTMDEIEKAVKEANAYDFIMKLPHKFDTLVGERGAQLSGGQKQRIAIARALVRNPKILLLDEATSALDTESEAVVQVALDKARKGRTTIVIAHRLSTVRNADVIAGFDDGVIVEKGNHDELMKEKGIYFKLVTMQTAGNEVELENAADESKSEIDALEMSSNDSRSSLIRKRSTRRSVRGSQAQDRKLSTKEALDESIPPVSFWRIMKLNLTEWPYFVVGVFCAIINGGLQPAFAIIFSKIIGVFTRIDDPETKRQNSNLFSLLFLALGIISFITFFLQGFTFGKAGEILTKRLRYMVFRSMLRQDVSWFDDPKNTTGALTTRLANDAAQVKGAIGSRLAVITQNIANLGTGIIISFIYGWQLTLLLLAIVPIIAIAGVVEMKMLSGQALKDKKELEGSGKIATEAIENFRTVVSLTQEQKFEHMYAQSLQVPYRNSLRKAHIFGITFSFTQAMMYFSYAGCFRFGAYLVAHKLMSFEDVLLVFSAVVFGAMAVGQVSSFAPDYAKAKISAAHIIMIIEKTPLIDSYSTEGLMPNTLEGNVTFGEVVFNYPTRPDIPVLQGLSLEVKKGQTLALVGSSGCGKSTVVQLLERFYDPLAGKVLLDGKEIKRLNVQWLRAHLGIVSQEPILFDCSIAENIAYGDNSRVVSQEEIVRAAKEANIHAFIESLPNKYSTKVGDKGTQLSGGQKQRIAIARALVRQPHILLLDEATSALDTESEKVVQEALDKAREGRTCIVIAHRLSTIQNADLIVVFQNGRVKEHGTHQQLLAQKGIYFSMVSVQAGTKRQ
T1 sequence (P33527 whole entry): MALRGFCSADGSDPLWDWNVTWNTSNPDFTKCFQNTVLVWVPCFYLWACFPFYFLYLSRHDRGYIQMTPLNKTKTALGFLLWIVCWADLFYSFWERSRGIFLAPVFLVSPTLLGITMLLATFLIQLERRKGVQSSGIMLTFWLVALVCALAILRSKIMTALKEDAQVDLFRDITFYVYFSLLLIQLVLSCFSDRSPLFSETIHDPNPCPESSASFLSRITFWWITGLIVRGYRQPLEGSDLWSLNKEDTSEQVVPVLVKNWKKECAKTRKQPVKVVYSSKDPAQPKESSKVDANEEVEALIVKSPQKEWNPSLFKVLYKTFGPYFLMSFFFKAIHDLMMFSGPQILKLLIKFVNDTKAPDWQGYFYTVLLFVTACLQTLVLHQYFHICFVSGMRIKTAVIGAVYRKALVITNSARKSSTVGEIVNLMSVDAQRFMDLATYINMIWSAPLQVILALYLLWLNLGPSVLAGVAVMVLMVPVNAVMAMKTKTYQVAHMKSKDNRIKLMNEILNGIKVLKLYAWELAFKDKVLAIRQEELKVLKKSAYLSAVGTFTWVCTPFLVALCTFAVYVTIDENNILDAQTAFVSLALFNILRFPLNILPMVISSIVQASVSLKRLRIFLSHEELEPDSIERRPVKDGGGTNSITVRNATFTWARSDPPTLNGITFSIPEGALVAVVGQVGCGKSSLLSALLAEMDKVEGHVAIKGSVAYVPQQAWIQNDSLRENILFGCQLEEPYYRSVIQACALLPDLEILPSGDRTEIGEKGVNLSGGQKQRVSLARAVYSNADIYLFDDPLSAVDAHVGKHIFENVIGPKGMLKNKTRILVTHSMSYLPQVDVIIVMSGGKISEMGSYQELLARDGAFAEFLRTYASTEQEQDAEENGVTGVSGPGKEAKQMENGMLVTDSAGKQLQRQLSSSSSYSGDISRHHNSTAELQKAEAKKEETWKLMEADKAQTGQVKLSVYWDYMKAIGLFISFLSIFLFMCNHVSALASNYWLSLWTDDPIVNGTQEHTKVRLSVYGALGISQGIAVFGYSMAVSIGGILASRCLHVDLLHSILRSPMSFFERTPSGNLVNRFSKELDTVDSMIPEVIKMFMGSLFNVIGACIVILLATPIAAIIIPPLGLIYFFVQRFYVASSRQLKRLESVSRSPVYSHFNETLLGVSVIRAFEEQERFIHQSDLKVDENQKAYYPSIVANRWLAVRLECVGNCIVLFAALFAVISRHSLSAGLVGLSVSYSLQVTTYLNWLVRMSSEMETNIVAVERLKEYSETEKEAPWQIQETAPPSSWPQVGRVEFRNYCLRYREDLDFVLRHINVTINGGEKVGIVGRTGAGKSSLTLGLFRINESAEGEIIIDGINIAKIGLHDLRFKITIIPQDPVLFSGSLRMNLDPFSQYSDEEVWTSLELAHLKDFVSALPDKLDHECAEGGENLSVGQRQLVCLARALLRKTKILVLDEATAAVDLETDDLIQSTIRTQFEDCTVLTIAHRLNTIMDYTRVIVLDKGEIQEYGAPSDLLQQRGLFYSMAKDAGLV

Regarding `CC[C@]1(O)C[C@@H]2CN(CCc3c([nH]c4ccccc34)[C@@](C(=O)OC)(c3cc4c(cc3OC)N(C)[C@H]3[C@@](O)(C(=O)OC)[C@H](OC(C)=O)[C@]5(CC)C=CCN6CC[C@]43[C@@H]65)C2)C1` [Vinblastine, vinblastine, reference compound], the IC50 (as a rule, the concentration that inhibits the measured activity by half) in the series with MCF7/VP cells (Homo sapiens, MCF7-VP) was 0.0006 ± 0.0001 µM; in the series on A498 cells (setting [3]), 0.0076 ± 0.0026 µM; in the series on T24 cells (setting [4]) it was 0.0013 ± 0.0003 µM; in the series on NCI/ADR cells (Homo sapiens, NCI/ADR-RES) it was 0.11 ± 0.017 µM; with MCF-7 cells [1] (setting [5]) it was 0.0004 ± 0.0001 µM; in the series with P388/ADR cells (Mus musculus, P388/ADR) it was 0.028 ± 0.005 µM.
Consider `CC[C@]1(O)C[C@H]2CN(CCc3c([nH]c4ccccc34)[C@@](C(=O)OC)(c3cc4c(cc3OC)N(C=O)[C@H]3[C@@](O)(C(=O)OC)[C@H](OC(C)=O)[C@]5(CC)C=CCN6CC[C@]43[C@@H]65)C2)C1` [Vincristine, vincristine, reference compound], for which the 50% inhibitory concentration (IC50) in the series on MCF7/VP cells (Homo sapiens, MCF7-VP) came out at 0.0075 ± 0.0011 µM; with A498 cells (setting [3]), 0.062 ± 0.011 µM; in the series on T24 cells (setting [4]), 0.0048 ± 0.0002 µM; in the series with NCI/ADR cells (Homo sapiens, NCI/ADR-RES), 0.183 ± 0.014 µM; with MCF-7 cells [1] (setting [5]) it was 0.0006 ± 0.0001 µM; with P388/ADR cells (Mus musculus, P388/ADR) it was 0.15 ± 0.024 µM.
Regarding `N.N.[Cl][Pt][Cl]` [Cisplatin, cisplatin, reference compound], the IC50 in the series with MCF7/VP cells (MCF7/VP (MRP1) cells, drug alone, EtOH solvent control, no modulator) came to 8.5 ± 2.1 µM; in the series with A498 cells (read-out: IC50 (EtOH), A498 cells, drug alone, EtOH solvent control, no modulator) it was 4.6 ± 1 µM; in the series on T24 cells (read-out: IC50 (EtOH), T24 cells, drug alone, EtOH solvent control, no modulator), 6.7 ± 1.1 µM; in the series on NCI/ADR cells (NCI/ADR cells, drug alone, EtOH solvent control, no modulator), 7 ± 0.9 µM; in the series on MCF-7 cells [1] (read-out: IC50 (EtOH), MCF-7 cells, drug alone, EtOH solvent control, no modulator) it was 16 ± 5 µM; in the series on P388/ADR cells (P388/ADR cells, drug alone, EtOH solvent control, no modulator), 2.1 ± 0.8 µM.
Molecule `COC(=O)c1ccc(OCc2nc3ccccc3n(C)c2=O)c(OC)c1` [Compound 10, 3-Methoxy-4-(4-methyl-3-oxo-3,4-dihydroquinoxalin-2-yl-methoxy)-benzoyl methyl ester] registered an IC50 with MCF-7 cells [2] of 71 µM. Moreover, the MRP1 antagonism score on MRP is 1.1. Also, on P-gp, the P-gp antagonism score came out at 5.6 and the p-GP/MRP1 came to 5.2.
`COc1cc(OCc2nc3ccccc3n(C)c2=O)cc(OC)c1OC` [Compound 23] gave an IC50 in the series on MCF-7 cells [2] of 21 µM. Further, the MRP1 antagonism score at MRP is 0.9. Further, at P-gp, the P-gp antagonism score is given as 1.2 and the p-GP/MRP1 worked out at 1.3.
In the case of `CC(=O)O[C@H]1C(=O)[C@@]2(C)[C@H]([C@H](OC(=O)c3ccccc3)[C@]3(O)C[C@H](OC(=O)[C@H](O)[C@@H](NC(=O)c4ccccc4)c4ccccc4)C(C)=C1C3(C)C)[C@]1(OC(C)=O)CO[C@@H]1C[C@@H]2O` [Taxol, reference compound], the concentration for half-maximal inhibition (IC50) was found to be 0.0018 ± 0.0004 µM in the series on MCF7/VP cells (Homo sapiens, MCF7-VP); 0.049 ± 0.021 µM with A498 cells (setting [3]); 0.0047 ± 0.0005 µM with T24 cells (setting [4]); 2.02 ± 0.81 µM with NCI/ADR cells (Homo sapiens, NCI/ADR-RES); 0.0016 ± 0.0003 µM in the series on MCF-7 cells [1] (setting [5]); 1.65 ± 0.47 µM in the series on P388/ADR cells (Mus musculus, P388/ADR).
The molecule `CC(C)NCC(=O)Nc1c2c(nc3ccccc13)N(C)CC2` [Compound 39] came in with a Toxicity in the series on MCF-7 cells [2] of 39%. For the same molecule, at MRP, the “MRP Antagonism” value is 1.4. In addition, the “Pgp Antagonism” value at P-gp was 1.8.
The molecule `CCCCN(CCCC)CC(=O)Nc1c2c(nc3ccccc13)N(C)CC2` [Compound 43] gave a Toxicity in the series with MCF-7 cells [2] of 50%. Besides, the “MRP Antagonism” value on MRP worked out at 1.3. In addition, the “Pgp Antagonism” value on P-gp is 4.2.
Consider `Nc1c2c(nc3ccccc13)N(Cc1ccccc1)CC2` [Compound 53], for which, in the series with MCF-7 cells [2], the Toxicity is 47%. Besides, the “MRP Antagonism” value at MRP is on record as 1.0. Also, the “Pgp Antagonism” value at P-gp came out at 3.1.
Turning to `CN1CCc2c1nc1ccccc1c2NC(=O)C12CC3CC(CC(C3)C1)C2` [Compound 45], the Toxicity in the series on MCF-7 cells [2] is 29%. Also, the “MRP Antagonism” value at MRP came to 0.9. Besides, the “Pgp Antagonism” value at P-gp worked out at 4.7.
For the molecule `COc1cccc2c1C(=O)c1c(O)c3c(c(O)c1C2=O)C[C@@](O)(C(=O)CO)C[C@@H]3O[C@H]1C[C@H](N)[C@H](O)[C@H](C)O1` [Doxorubicin, reference compound], the half-maximal inhibitory concentration (IC50) with P388/ADR cells (Mus musculus, P388/ADR) is 26.7 ± 10.6 µM.
For the molecule `CC(C)(C)c1cc(CCC(=O)Nc2c3c(nc4ccccc24)N(Cc2ccccc2)CC3)cc(C(C)(C)C)c1O` [Compound 64], the Toxicity in the series on MCF-7 cells [2] is listed as 50%. At MRP, the “MRP Antagonism” value was determined as 1.15. The “Pgp Antagonism” value on P-gp is recorded as 13.2.
